This note sets out measurements from patent publication US6610883B1, “Compounds having selective activity for retinoid X receptors, and means for modulation of processes mediated by retinoid X receptors” (Ligand Pharmaceuticals, Inc., priority 1992, dated 2003).

Type in all cases: cell-based
For one test, the target named is T1, RXRγ (Mus musculus, UniProt P28705).
T1 construct: expressed in transfected cells; host or cells: CV-1 (monkey kidney)
T1 sequence (P28705 1-463): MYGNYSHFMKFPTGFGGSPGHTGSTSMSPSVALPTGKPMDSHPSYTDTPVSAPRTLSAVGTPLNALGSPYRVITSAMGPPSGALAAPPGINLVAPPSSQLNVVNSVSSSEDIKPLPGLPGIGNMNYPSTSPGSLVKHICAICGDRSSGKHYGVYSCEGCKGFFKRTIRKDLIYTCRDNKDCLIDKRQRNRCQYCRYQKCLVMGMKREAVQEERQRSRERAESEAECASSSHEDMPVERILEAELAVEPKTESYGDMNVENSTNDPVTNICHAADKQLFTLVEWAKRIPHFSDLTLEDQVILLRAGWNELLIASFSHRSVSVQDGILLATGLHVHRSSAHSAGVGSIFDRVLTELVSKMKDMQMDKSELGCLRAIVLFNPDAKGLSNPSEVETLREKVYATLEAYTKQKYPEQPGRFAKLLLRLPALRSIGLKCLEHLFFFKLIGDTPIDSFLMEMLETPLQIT
Kind of test: Co-transfection (cis-trans) assay in CV-1 cells, RXRγ. To be noted: for Emax at 10 µM: CV-1, maximal response relative to all-trans-retinoic acid at 10^−5 M, read-out: Efficacy. From the text: (§1) The co-transfection assay provides a mechanism to evaluate the ability of a compound to modulate the transcription response initiated by an intracellular receptor. […] Berger, et al., J. Steroid Biochem Molec.
(§2) Briefly, the co-transfection assay involves the introduction of two plasmids by transient transfection into a retinoid receptor-negative mammalian cell background. The first plasmid contains a retinoid receptor cDNA and directs constitutive expression of the encoded receptor. The second plasmid contains a cDNA that encodes for a readily quantifiable protein, e.g., firefly luciferase or chloramphenicol acetyl transferase (CAT), under control of a promoter containing a retinoid acid response element, which confers retinoid dependence on the transcription of the reporter. In this co-transfection assay, all retinoid receptors respond to all-trans-retinoic acid in a similar fashion. This assay can be used to accurately measure efficacy and potency of retinoic acid and synthetic retinoids as ligands that interact with the individual retinoid receptor subtypes.
(§3) Accordingly, synthetic retinoid compounds of the current invention were evaluated for their interaction with retinoid receptor subtypes using the co-transfection assay in which CV-1 cells were co-transfected with one of the retinoid receptor subtypes, a reporter construct, and an internal control to allow normalization of the response for transfection efficiency. The following example is illustrative.
(§4) Retinoids: All-tans-retinoic acid (RA) and 13-cis-retinoic acid (13-cis-RA) were obtained from Sigma. […] Retinoids were dissolved in dimethylsulfoxide for use in the transcriptional activation assays.
(§5) Co-transfection Assay In CV-1 Cells: A monkey kidney cell line, CV-1, was used in the cis-trans assay. Cells were transfected with two plasmids. […] The cis-vector contains an easily assayable gene product, in this case the firefly luciferase, coupled to a retinoid-responsive promoter, i.e., an RARE or RXRE. Addition of retinoic acid or an appropriate synthetic retinoid results in the formation of a retinoid-RAR or -RXR complex that activates the expression of luciferase gene, causing light to be emitted from cell extracts. The level of luciferase activity is directly proportional to the effectiveness of the retinoid-receptor complex in activating gene expression. This sensitive and reproducible co-transfection approach permits the identification of retinoids that interact with the different receptor isoforms.
(§6) Cells were cultured in DMEM supplemented with 10% charcoal resin-stripped fetal bovine serum, and experiments were conducted in 96-well plates. […] Cells were transfected for 6 h and then washed to remove the precipitate. The cells were then incubated for 36 h with or without retinoid. After the transfection, all subsequent steps were performed on a Beckman Biomek Automated Workstation. […] All determinations were performed in triplicate in two independent experiments and were normalized for transfection efficiency by using β-galactosidase as the internal control. […] Efficacy values less than 5% are not statistically different than the 0% background.

For another test, the target named is T2, RARα (Homo sapiens, UniProt P10276).
T2 sequence (P10276 1-462): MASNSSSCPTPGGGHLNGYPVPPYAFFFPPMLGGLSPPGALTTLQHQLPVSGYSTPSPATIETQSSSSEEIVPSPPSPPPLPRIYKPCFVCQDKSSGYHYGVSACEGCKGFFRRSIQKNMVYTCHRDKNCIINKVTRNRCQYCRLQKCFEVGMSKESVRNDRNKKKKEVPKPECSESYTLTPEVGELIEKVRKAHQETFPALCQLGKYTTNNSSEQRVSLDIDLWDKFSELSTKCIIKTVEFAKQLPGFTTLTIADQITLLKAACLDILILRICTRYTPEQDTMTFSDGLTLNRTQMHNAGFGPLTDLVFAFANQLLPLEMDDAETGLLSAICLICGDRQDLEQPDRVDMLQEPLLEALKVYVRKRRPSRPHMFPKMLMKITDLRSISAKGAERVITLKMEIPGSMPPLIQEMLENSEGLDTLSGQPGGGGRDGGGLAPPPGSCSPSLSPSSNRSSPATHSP
In words: Co-transfection (cis-trans) assay in CV-1 cells, RARα. To be noted: for Emax at 10 µM: CV-1, maximal response relative to all-trans-retinoic acid at 10^−5 M, read-out: Efficacy; for EC50: CV-1 cells, luciferase reporter, 36 h, read-out: Potency. Also on record: expressed in transfected cells; host or cells: CV-1 (monkey kidney).
Excerpt: as §1, §2, §3, §4, §5, §6
In general terms: A reporter such as luciferase makes a cellular process visible.

A further test has as its target T3, RARγ (Homo sapiens, UniProt P13631).
T3 sequence (P13631 1-454): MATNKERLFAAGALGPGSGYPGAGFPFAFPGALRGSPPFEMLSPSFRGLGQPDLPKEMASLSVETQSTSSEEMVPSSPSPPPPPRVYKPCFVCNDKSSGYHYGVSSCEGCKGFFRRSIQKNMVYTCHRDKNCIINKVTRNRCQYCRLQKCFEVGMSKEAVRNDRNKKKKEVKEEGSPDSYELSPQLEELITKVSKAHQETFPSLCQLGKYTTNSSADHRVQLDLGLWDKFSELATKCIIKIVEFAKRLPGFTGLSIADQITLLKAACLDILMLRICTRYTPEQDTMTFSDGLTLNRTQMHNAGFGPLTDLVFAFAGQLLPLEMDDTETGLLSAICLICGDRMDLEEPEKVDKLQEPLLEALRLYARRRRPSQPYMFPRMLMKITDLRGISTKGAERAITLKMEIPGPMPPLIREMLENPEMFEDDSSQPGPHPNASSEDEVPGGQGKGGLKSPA
Kind of test: Co-transfection (cis-trans) assay in CV-1 cells, RARγ. Also on record: expressed in transfected cells; host or cells: CV-1 (monkey kidney). To be noted: for Emax at 10 µM: CV-1, maximal response relative to all-trans-retinoic acid at 10^−5 M, read-out: Efficacy; for EC50: CV-1 cells, luciferase reporter, 36 h, read-out: Potency.
Excerpt: as §1, §2, §3, §4, §5, §6

Where [1] appears, read: RXRγ, CV-1 cells, luciferase reporter, 36 h, read-out: Potency.

Structures are written as SMILES. Read-outs that look alike come from different tables or passages of the source.

On to `CC1=C(C=CC2CCCCC2/C=C/C(C)=C/C(=O)O)C(C)(C)CCC1` (stereo not drawn) [Compound 100, 3-methyl-5-(2-[2-(2,6,6-trimethylcyclohexen-1-yl)ethenyl]cyclohexyl)-2E,4E-pentadienoic acid], for which the Emax at 10 µM on RXRγ (RXRγ) is 72%; at RARα, 9%; at RARγ, 4%. Besides, the EC50 on RXRγ (setting [1]) is 106 nM; on RARα, > 10 µM; at RARγ it was > 10000 nM.

For the compound `C/C(=C/C=C/C(C)=C/C(=O)O)c1cc2c(cc1C)C(C)(C)CCC2(C)C` [Compound 128, (2E,4E,6Z)-7-(3,5,5,8,8-pentamethyl-5,6,7,8-tetrahydro-2-naphthyl)-3-methyl-octa-2,4,6-trienoic acid], the Emax at 10 µM on RXRγ (RXRγ) worked out at 115%; on RARα, 12%; on RARγ it was 37%. The EC50 was 10 nM at RXRγ (setting [1]), > 10 µM at RARα and 309 nM at RARγ.

Consider `CCCC(=C/C=C/C(C)=C/C(=O)O)/C=C/C1=C(C)CCCC1(C)C` [Compound 74, 3-methyl-7-propyl-9-(2,6,6-trimethyl-1-cyclohexen-1-yl)-2E,4E,6Z,8E-nonatetranoic acid], for which the Emax at 10 µM at RXRγ (RXRγ) was 85%; on RARα, < 2%; at RARγ, 61%. The EC50 on RXRγ (setting [1]) was 12 nM; at RARα, > 10 µM; at RARγ, 37 nM.

On to `CC1=C(/C=C/C(=C\C=C\C(C)=C\C(=O)O)C(C)(C)C)C(C)(C)CCC1` [Compound 77, 3-methyl-7-t-butyl-9-(2,6,6-trimethyl-1-cyclohexen-1-yl)-2E,4E,6Z,8E-nonatetranoic acid], for which the Emax at 10 µM on RXRγ (RXRγ) is 71%; at RARα, < 2%; at RARγ, 44%. Further, the results for the EC50 at RXRγ (setting [1]), at RARα and on RARγ were 9 nM, > 10 µM and 170 nM, respectively.

For the compound `CC(/C=C/C=C(\c1ccc2c(c1)C(C)(C)CCC2(C)C)C(C)C)=C\C(=O)O` [Compound 123, (2E,4E,6Z)-7-(5,5,8,8-tetramethyl-5,6,7,8-tetrahydro-2-naphthyl)-3,8-dimethyl-nona-2,4,6-trienoic acid], the Emax at 10 µM on RXRγ (RXRγ) amounted to 97%; at RARα it was 11%; at RARγ, 49%. Besides, the EC50 on RXRγ (setting [1]) is 24 nM; on RARα it was > 10 µM; on RARγ it was 283 nM.

In the case of `C=C(c1ccc(C(=O)O)cc1)c1cc2c(cc1Br)C(C)(C)CCC2(C)C` [3-Bromo-TTNEB, 4-[1-(3-bromo-5,5,8,8-tetramethyl-5,6,7,8-tetrahydro-2-naphthyl)ethenyl]benzoic acid], the EC50 at RXRγ was determined as 52 nM. Besides, the Emax at 10 µM stood at 3% on RARα and 15% on RARγ.

Regarding `Cc1cc2c(cc1C(=O)c1ccc(C(=O)Nc3ccc(O)cc3)cc1)C(C)(C)CCC2(C)C` [3-Methyl-TTNCHBP, 4-[(3,5,5,8,8-pentamethyl-5,6,7,8-tetrahydro-2-naphthyl)carbonyl]-N-(4-hydroxyphenyl)benzamide], the Emax at 10 µM at RXRγ (RXRγ) is 128%; at RARα, < 2%; on RARγ, 17%. In addition, the figures for the EC50 on RXRγ (setting [1]), at RARα and at RARγ were 300 nM, > 10 µM and > 10000 nM, respectively.

On to `C=C(c1ccc(C(=O)Nc2ccc(O)cc2)cc1)c1cc2c(cc1C)C(C)(C)CCC2(C)C` [3-Methyl-TTNEHBP (63), 4-[1-(3,5,5,8,8-pentamethyl-5,6,7,8-tetrahydro-2-naphthyl)ethenyl]-N-(4-hydroxyphenyl)benzamide], for which the Emax at 10 µM at RXRγ (RXRγ) is 163%; on RARα, < 2%; on RARγ it was 10%. Moreover, the EC50 on RXRγ (setting [1]) is 48 nM; at RARα, > 10 µM; on RARγ it was > 10000 nM.

As for `CC1=C(/C=C/C(=C\C=C\C(C)=C\C(=O)O)C(C)C)C(C)(C)CCC1` [Compound 75, 3-methyl-7-isopropyl-9-(2,6,6-trimethyl-1-cyclohexen-1-yl)-2E,4E,6Z,8E-nonatetranoic acid], the Emax at 10 µM at RXRγ (RXRγ) is 106%; at RARα, < 2%; at RARγ, 119%. The EC50 at RXRγ (setting [1]) was 11 nM; at RARα, > 10 µM; on RARγ, 150 nM.

In the case of `CC(/C=C/C1(c2cc3c(cc2C)C(C)(C)CCC3(C)C)CC1)=C\C(=O)O` [Compound 104, (2E,4E)-3-methyl-5-[1-(3,5,5,8,8-pentamethyl-5,6,7,8-tetrahydro-2-naphthyl)cyclopropyl]penta-2,4-dienoic acid], the Emax at 10 µM at RXRγ (RXRγ) is 85%; on RARα it was 7%; on RARγ, 28%. Also, the values for the EC50 at RXRγ (setting [1]), at RARα and on RARγ were 7 nM, > 10 µM and 144 nM, respectively.

For `CC1=C(/C=C/C2(C/C=C/C(C)=C/C(=O)O)CC2)C(C)(C)CCC1` [Compound 110], the figures for the Emax at 10 µM at RXRγ (RXRγ), on RARα and on RARγ were 87%, 9% and 37%, respectively. Also, the EC50 is 198 nM on RXRγ (setting [1]), > 10 µM at RARα and 1770 nM at RARγ.
